Laboratory results reported in patent publication US9607202B2, “Methods of generating trophectoderm and neurectoderm from human embryonic stem cells” (UNIVERSITY OF PITTSBURGH—OF THE COMMONWEALTH SYSTEM OF …, priority 2009, dated 2017).

How the values were obtained:
[1] = system: hESCs; experiment: hESC viability and OCT4 expression in minimal induction media; format: cell-based, human
[2] = system: pluripotent hESCs, line H7; experiment: TE-induction and lineage selectivity of hESCs by transcription factor immunostaining (CDX2, brachyury, GATA6, OCT4); format: cell-based, human
Description: Pluripotent hESCs, line H7, were grown on mitomycin-treated MEFs (GlobalStem) at normal-density (120,000 cells/6 cm^2), maintained in DSR media (Table 1), and passaged weekly using Collagenase IV (Invitrogen/Gibco) and StemPro®EZPassage™ (Invitrogen) as directed. Cell colonies were briefly spun, resuspended in DSR, and plated onto normal density MEFs in CM (Table1). For TE-directed differentiation, hESCs were passaged at 1:5 dilution onto low-density MEFs (30,000 cells/6 cm^2) using DSR media minus FGF2 supplemented with BMP4 (Invitrogen, PHC7914) 100 ng/mL. Media was changed daily.
Feeder-free hESCs were grown on Geltrex (Invitrogen)-coated plates in StemPro (Invitrogen), passaged weekly with Collagenase IV or Accutase (StemCell Technologies) as directed, resuspended in StemPro and plated onto Geltrex-coated plates. For TE-directed differentiation pluripotent hESCs maintained in StemPro or in Erb's Minimal Induction Media (EMIM) were passaged onto feeder-free, Geltrex-coated plates into respective basal media supplemented with the activin A antagonist, SB431542 (10 uM), and/or BMP4 (100 ng/mL or 500 ng/mL) as indicated. Media was changed daily. Terminal STB differentiation was accomplished by culturing hESCs in EMIM+SB+100 ng/mL BMP4 for 14 days.
In PBS, cell colonies were fixed with 2% paraformaldehyde, permeabilized with 1% Triton X-100 (Sigma, St. Louis Mo.), and non-specific antibody binding blocked with 10% goat serum. Primary antibodies (Table 2) were diluted in 1% goat serum, spun briefly, and incubated overnight at 37° C. After a wash in PBS-Tween 0.05% a species-specific fluorescent secondary antibody (prepared as above) was added for 60 min at 37° C. Cells were washed in PBS-Tween 0.05%, incubated in Hoechst […] (1:10,000), and mounted in Gelvatol polyvinyl alcohol-based media (Sammak et al., 1987).
Nuclear labeling (Hoechst 33342) facilitates automated image segmentation for counting cell number. Since pluripotent hESCs can differentiate along multiple lineages, TE-differentiation was determined by immunostaining for transcription factors localized to the cell's nucleus or cytoplasm (Table 2). Four color microscopy permits co-labeling of cells with markers of pluripotent hESCs (OCT4), TE cells (CDX2), and alternative markers for early differentiation including neurectoderm (nestin), mesoderm (brachyury), or extraembryonic endoderm
(GATA6). TE-induction was determined by two criteria: 1) the percentage of all cells that were CDX2-positive and the fold change of CDX2-nuclear intensity over control, unstimulated cells. […] TE selectivity was determined by a significant percentage of CDX2-positive cells and a suppression of the percentage of nestin-, brachyury-, and GATA6-positive cells.
96-well Microplates were scanned using the 5 or 10× objective on the ArrayScan V Automated image analysis was performed using the Compartmental Analysis BioApplication using Hoechst for identification of nuclei and various transcription factor antibodies (Table 2). Nuclear-specific fluorescence intensity was determined from approximately 300 single cells per well from 3-6 independent wells to produce a well-average nuclear intensity for each measurement Mean and standard deviation were calculated from multiple wells. Fold change of the mean intensities were normalized against matched unstimulated external controls, usually the pluripotent condition, to divide out differences due to efficiency of antibody-antigen binding and chromophore quantum yield. […] Select conditions are additionally compared in bar graph format to show standard deviations and T-tests.

[3] = system: rNSCs; experiment: Neuronal differentiation of rNSCs cultured on different surfaces; format: cell-based, rat
Description: All coverslips (Fisher scientific, Pittsburgh, Pa.) were adhered onto the bottom of 24-well plate with Kwik Sil (World Precision Instruments, Inc., Sarasota, Fla.). Before cell seeding, the surface of coverslips were sterilized under UV for 30 min, and then immersed into PBS for 30 min. Laminin (BD Biosciences, San Jose, Calif.) coated glass coverslips were also prepared as control substrates for cell culture. […]
(§1) Neuronal differentiation was detected by anti-βIII tubulin for hESCs, anti-NF200 for rNSCs. […]
For rNSCs, neuronal cells (NF200 positive) were counted on the whole coverslips and averaged values across all coverslips were presented as mean±SD. Total cell number was calculated from the number of nuclei. Cell nuclei were counted on ten randomly selected images, averaged, divided by image area and then multiplied by the area of coverslip. […] Cell density was calculated by dividing values of cell number by the image area. Neurite length was measured using Image J and plug-in Neuron J. Length of the primary neurite and all neurites of each cell in each group was measured by tracing the neurites of NF200 positive cells with the tracing algorithm contained in Neuron J. Primary neurite was defined as the longest process out of cell body. […]

[4] = system: hESCs (line UCO6 (HSF6)); experiment: Neuronal differentiation of hESCs on different surfaces; format: cell-based, human
Description: All coverslips (Fisher scientific, Pittsburgh, Pa.) were adhered onto the bottom of 24-well plate with Kwik Sil (World Precision Instruments, Inc., Sarasota, Fla.). Before cell seeding, the surface of coverslips were sterilized under UV for 30 min, and then immersed into PBS for 30 min. Laminin (BD Biosciences, San Jose, Calif.) coated glass coverslips were also prepared as control substrates for cell culture.
hESCs, line HSF6 obtained from the University of California-San Francisco and WiCell, respectively were approved by the University of Pittsburgh ESCRO committee with IRB exempt approval. hESCs were maintained in ES-DMEM high glucose with 20% KSR, 1% MEM NEAA (WiCell Research Institute, Madison, Wis.), Pen/Strep (10,000 U/10,000 ug), 1% L-Glutamine (2 mM), and 8 ng/mL bFGF (Invitrogen, Carlsbad, Calif.), and passaged in 50-100 cell clusters as recommended. hESCs were grown on mitomycin-treated MEFs prepared from 14-day CF-1 embryos. Media was changed every other day and colonies were mechanically passaged every […] with a Pasteur pipette. […]
as §1

[5] = system: hESCs; experiment: Terminal differentiation to syncytia (percentage of bi- or multi-nucleated cells); format: cell-based, human; conditions: neurectoderm culture conditions induced by noggin
[6] = system: hESC; experiment: Neurectoderm differentiation from hESCs in noggin media; format: cell-based, human; conditions: small colonies from StemPro
Description: There are several laboratories that have applied the BMP4 antagonist noggin for differentiation of hESC to neurectoderm or neural stem cells (Ying, Stavridis et al. 2003; Gerrard, Rodgers et al. 2005; Yao, Chen et al. 2006; Cohen, Itsykson et al. 2007). Here, small colonies grown in StemPro are used as the starting material. Cells were plated in StemPro media or neural differentiation media (DMEM/F12 media supplemented with N2/B27). After each day of growth, colonies with the smallest colonies were changed into Noggin media. When colonies grown in noggin had differentiated along a neurectoderm lineage, the cells were fixed for immunostaining. If the colonies had not differentiated, the media was changed and the cells remained in Noggin media for another day. The process was repeated each day for 6-7 days. Cells were immunostained with the following antibodies: Pax6 mouse (Santa Cruz), Otx2 rabbit (Abeam), Nestin mouse (Covance), Alexa 488 goat anti mouse green, Cy3 goat anti rabbit red, Cy5 goat anti mouse far red.

[7] = short-term treatment in StemPro (SB or low-dose BMP4 alone)

Q: With heparin as the molecule, how does the hESC viability ([1]; basal media once BMP4 was supplemented) read?
A: improve hESC viability

Q: Which hESC survival ([1]; addition to minimal induction media with or without heparin) does the source give for `OCCS` [β-mercaptoethanol] here?
A: reduced hESC survival

Q: How did the brachyury expression [2, 7] turn out when `NC(=O)c1ccc(-c2nc(-c3ccc4c(c3)OCO4)c(-c3ccccn3)[nH]2)cc1` [SB, SB431542] was run?
A: significant increase in brachyury expression

Q: With “BMP4: bone morphogenic protein (BMP4), TGFβ superfamily member” as the molecule, how does the “fraction of cell population induced to non-TE lineages” value ([2]; 100 ng/mL BMP4 in MIM) read?
A: over half of the cell population

Q: What about the “TE-induction efficiency as frequency of CDX2 staining” value (“TE-induction efficiency as frequency” for short) ([2]; BMP4, monolayer colonies, DSR/MEF culture (low density MEFs minus FGF2), 7 days) of the same molecule?
A: 3.6%

Q: What about the “TE-induction efficiency as frequency” value ([2]; BMP4, multilayer colonies, DSR/MEF culture, 7 days) of the same molecule?
A: 44.4%

Q: What about the “increase in percent brachyury (T) positive cells” value ([2]; BMP4 added to StemPro for 48 hours) of the same molecule?
A: 6 fold

Q: And the CDX2 induction ([2]; BMP4 alone 500 ng/mL in EMIM, day 2)?
A: Significant CDX2 induction

Q: And the “extraembryonic endoderm (GATA6) positive cells” value ([2]; BMP4 in MIM)?
A: ~20%

Q: What about the “mesoderm (brachyury) positive cells” value ([2]; BMP4 in MIM) of the same molecule?
A: over 40%

Q: And the OCT4 expression ([2]; BMP4 supplementation on low density MEFs)?
A: decreased OCT4 expression

Q: What about the CDX2 expression ([2]; BMP4 supplementation to EMIM, culture day 7) of the same molecule?
A: induced diffuse CDX2 expression

Q: What about the “GATA6 over MIM alone” value ([2]; BMP4 supplementation to MIM) of the same molecule?
A: did not increase

Q: What about the “brachyury over MIM alone” value ([2]; BMP4 supplementation to MIM) of the same molecule?
A: did not increase

Q: What about the “fold induction of CDX2 over MIM alone” value ([2]; BMP4 supplementation to MIM) of the same molecule?
A: significantly increased

Q: And the “TE-induction efficiency as frequency” value ([2]; StemPro containing BMP4, MEF-free, 4 days)?
A: 93.7%

Q: What about the brachyury expression ([2]; addition of BMP4 to StemPro) of the same molecule?
A: dose-dependent, statistically significant increase

Q: And the brachyury expression [2, 7]?
A: significant increase in brachyury expression

Q: Which “percentage of neurons (NF200 positive cells)” value ([3]; 7 d) does the source give for laminin here?
A: higher percentage of neurons

Q: And the “percentage of neurons (NF200 positive cells)” value ([3]; 14 d)?
A: higher percentage of neurons

Q: And the “number of cells per colony” value ([4]; end of the second week (14 days))?
A: indistinguishable

Q: What about the “adhesion and spreading of hESC embryoid bodies/colonies” value ([4]; feeder-free, within the first week) of the same molecule?
A: adhered

B1: noggin: BMP4 antagonist protein; mouse recombinant noggin (protein, UniProt P97466 28-232, looked up)
Noggin: QHYLHIRPAPSDNLPLVDLIEHPDPIFDPKEKDLNETLLRSLLGGHYDPGFMATSPPEDRPGGGGGPAGGAEDLAELDQLLRQRPSGAMPSEIKGLEFSEGLAQGKKQRLSKKLRRKLQMWLWSQTFCPVLYAWNDLGSRFWPRYVKVGSCFSKRSCSVPEGMVCKPSKSVHLTVLRWRCQRRGGQRCGWIPIQYPIISECKCSC
Q: B1 was tested. Which multinucleated cells [5] did it give?
A: absent

Q: And the “efficiency of producing Nestin-positive cells” value [6]?
A: ~100%

Q: What about the “time to produce Nestin-positive cells” value [6] of the same molecule?
A: 3 to 7 days
